Publication PMC12333015, “Profiling the Impact of mGlu7/Elfn1 Protein Interactions on the Pharmacology of mGlu7 Allosteric Modulators” (ACS Chemical Neuroscience, 2025)
Like-named read-outs stand apart in the source and are kept apart here. Values belong to the compound of their own block, whether it stands above or below them.

How the values were obtained:
rat mGlu7 = target: T1, rat mGlu7 (Rattus norvegicus, UniProt P35400); assay: Thallium flux assay, mGlu7/GIRK HEK293 cells cocultured with pcDNA3 vector control cells; format: cell-based; conditions: for Emax: HEK293, read-out: PAM Maximal response, pcDNA; for Emax / EC50: PAM concentration-response at an EC20 concentration of L-AP4; for Fold potentiation, pcDNA: fold potentiation of an EC20 concentration of L-AP4; for baseline Resp ± SEM, pcDNA / Maximal Resp ± SEM, pcDNA / response below baseline at inactive L-AP4 concentrations / % inhibition Resp ± SEM, pcDNA: 10 μM compound; for baseline Resp ± SEM, pcDNA: average response at bottom three L-AP4 concentrations, Percent L-AP4/pcDNA/DMSO Max; for Maximal Resp ± SEM, pcDNA: average response at top two L-AP4 concentrations, normalized to L-AP4 max with pcDNA/DMSO; for response below baseline at inactive L-AP4 concentrations: observed regardless of the presence of Elfn1; for % inhibition Resp ± SEM, pcDNA: of maximal L-AP4 response; for IC50: compound concentration-response in presence of 600 μM L-AP4 (EC80), read-out: compound pIC50 ± SEM, pcDNA (converted); for compound Min Resp ± SEM, pcDNA: minimal curve fit response, 600 μM L-AP4, maximal inhibition at 30 μM compound, normalized to 600 μM L-AP4 response
T1 construct: expressed in transfected cells; host or cells: HEK293A cells stably expressing mGlu7 and GIRK1/2
T1 sequence (P35400 35-915): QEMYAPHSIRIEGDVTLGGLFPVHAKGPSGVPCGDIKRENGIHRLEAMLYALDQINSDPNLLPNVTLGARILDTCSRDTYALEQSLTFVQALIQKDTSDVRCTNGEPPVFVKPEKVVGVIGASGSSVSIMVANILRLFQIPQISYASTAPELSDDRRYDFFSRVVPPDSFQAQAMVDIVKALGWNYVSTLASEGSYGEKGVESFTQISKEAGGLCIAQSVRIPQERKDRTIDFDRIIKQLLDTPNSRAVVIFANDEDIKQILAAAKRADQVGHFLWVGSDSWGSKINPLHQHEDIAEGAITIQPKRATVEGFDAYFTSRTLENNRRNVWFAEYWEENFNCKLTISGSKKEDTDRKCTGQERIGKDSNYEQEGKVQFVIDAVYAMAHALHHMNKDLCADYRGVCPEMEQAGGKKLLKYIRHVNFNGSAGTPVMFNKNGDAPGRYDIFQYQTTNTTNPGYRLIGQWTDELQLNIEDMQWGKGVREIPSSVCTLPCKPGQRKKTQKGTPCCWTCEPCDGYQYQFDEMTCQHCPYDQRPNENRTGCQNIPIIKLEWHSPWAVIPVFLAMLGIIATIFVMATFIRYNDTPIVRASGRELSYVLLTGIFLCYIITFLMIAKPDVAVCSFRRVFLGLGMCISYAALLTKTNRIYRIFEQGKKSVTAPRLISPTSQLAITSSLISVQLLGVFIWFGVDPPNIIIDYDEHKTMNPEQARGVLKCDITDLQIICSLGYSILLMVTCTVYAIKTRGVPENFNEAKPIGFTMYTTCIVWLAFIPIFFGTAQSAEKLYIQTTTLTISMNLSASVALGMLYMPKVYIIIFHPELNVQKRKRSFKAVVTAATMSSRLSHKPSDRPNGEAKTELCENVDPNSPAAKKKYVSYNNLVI
From the text: (§1) We began our evaluation of mGlu7 ligands in the presence and absence of Elfn1 by using a coculture system as previously described , with several modifications (Figure ). Cells expressing rat mGlu7 and coexpressing G protein inwardly rectifying potassium (GIRK) channels 1 and 2 were cocultured with cells expressing either an empty pcDNA3 vector control or a plasmid containing Elfn1 in the pcDNA3 backbone. We then evaluated the activity of the orthosteric agonist L-AP4 and measured effects on maximal response and pEC50. All responses were normalized to the maximal effect of L-AP4 in the presence of the pcDNA3 control plasmid.
(§2) 2 Assay design and workflow. (Left panel) Cells expressing rat mGlu7/GIRK (pink) were cocultured with pcDNA3 (blue) or Elfn1 (purple). […] (Right panel) The effect on the concentration–response curve in the presence (purple) or absence (blue) of Elfn1 can be seen by a change in efficacy, potency, and/or basal response.
(§3) HEK293A cells stably expressing mouse Elfn1 or pcDNA3 were maintained in growth medium containing 90% Dulbecco’s Modified Eagle Media (DMEM), 10% fetal bovine serum (FBS), 100 units/mL penicillin/streptomycin, 20 mM HEPES, 1 mM sodium pyruvate, 2 mM L-glutamine, 1× nonessential amino acids, and 700 μg/mL G418 sulfate. HEK mGlu7/GIRK cells were maintained in a growth medium with 90% DMEM/F12, 10% dialyzed FBS, 100 units/mL penicillin/streptomycin, 20 mM HEPES, 1 mM sodium pyruvate, 2 mM L-glutamine, 1× nonessential amino acids, 700 μg/mL G418 sulfate, and 600 ng/mL puromycin. All cell culture reagents were purchased from Invitrogen (Carlsbad, CA).
(§4) Thallium flux assays were performed as previously described. A mixture of HEK293A mGlu7/GIRK cells and pcDNA3 or Elfn1-expressing HEK293A cells (5000/15,000 cells/20 μL/well for agonist and PAM experiments; 7500/15,000 cells/20 μL/well for NAM experiments) was seeded in 384-well, amine-coated assay plates (Greiner Bio-One, Monroe, NC). Cells were incubated overnight in a humidified 5% CO2 cell culture incubator at 37 °C. […] Following a 1 h incubation at room temperature, the dye loading solution was replaced with 20 μL/well assay buffer and the plates were loaded into a Hamamatsu FDSS 7000 (Bridgewater, NJ). […] Thallium flux data were analyzed by first dividing each point in each wave by the first point in that wave and then subtracting the average of the vehicle control response. The slopes of these vehicle control-subtracted waves were calculated over ten data points beginning 2 s after thallium stimulus addition and fit to a three-parameter logistic equation in GraphPad Prism (La Jolla, CA). In most cases, the final data were normalized to the response of the mGlu7/pcDNA3 with vehicle and 5 mM L-AP4 unless otherwise noted. Potency (pEC50) and maximum responses (E max) induced by compounds were determined using a four-parameter logistical equation in Prism. Basal activity was calculated with data points at the three lowest test concentrations. Maximum activity was calculated with data points at two highest concentrations. All experiments were replicated at least three times in duplicate or triplicate.

mGlu7/Elfn1 = target: T2, mGlu7/Elfn1 (Rattus norvegicus, UniProt P35400); assay: Thallium flux assay, mGlu7/GIRK HEK293 cells cocultured with Elfn1-expressing cells; format: cell-based, mouse Elfn1; conditions: for Emax: HEK293, read-out: PAM Maximal response, Elfn1; for Fold potentiation, Elfn1: fold potentiation of an EC20 concentration of L-AP4; for baseline Resp ± SEM, Elfn1 / Maximal Resp ± SEM, Elfn1 / % inhibition Resp ± SEM, Elfn1: 10 μM compound; for baseline Resp ± SEM, Elfn1: average response at bottom three L-AP4 concentrations, Percent L-AP4/pcDNA/DMSO Max; for Maximal Resp ± SEM, Elfn1: average response at top two L-AP4 concentrations, normalized to L-AP4 max with pcDNA/DMSO; for % inhibition Resp ± SEM, Elfn1: of maximal L-AP4 response; for IC50: compound concentration-response in presence of 600 μM L-AP4 (EC80), read-out: compound pIC50 ± SEM, Elfn1 (converted); for compound Min Resp ± SEM, Elfn1: minimal curve fit response, 600 μM L-AP4, maximal inhibition at 30 μM compound, normalized to account for lower agonist max with Elfn1
T2 construct: expressed in transfected cells; host or cells: HEK293A mGlu7/GIRK cells cocultured with HEK293A polyclonal cells stably expressing Elfn1-Myc (pcDNA3)
T2 sequence (P35400 35-915): as above
T2 sequence (Q8C8T7 26-828 partner): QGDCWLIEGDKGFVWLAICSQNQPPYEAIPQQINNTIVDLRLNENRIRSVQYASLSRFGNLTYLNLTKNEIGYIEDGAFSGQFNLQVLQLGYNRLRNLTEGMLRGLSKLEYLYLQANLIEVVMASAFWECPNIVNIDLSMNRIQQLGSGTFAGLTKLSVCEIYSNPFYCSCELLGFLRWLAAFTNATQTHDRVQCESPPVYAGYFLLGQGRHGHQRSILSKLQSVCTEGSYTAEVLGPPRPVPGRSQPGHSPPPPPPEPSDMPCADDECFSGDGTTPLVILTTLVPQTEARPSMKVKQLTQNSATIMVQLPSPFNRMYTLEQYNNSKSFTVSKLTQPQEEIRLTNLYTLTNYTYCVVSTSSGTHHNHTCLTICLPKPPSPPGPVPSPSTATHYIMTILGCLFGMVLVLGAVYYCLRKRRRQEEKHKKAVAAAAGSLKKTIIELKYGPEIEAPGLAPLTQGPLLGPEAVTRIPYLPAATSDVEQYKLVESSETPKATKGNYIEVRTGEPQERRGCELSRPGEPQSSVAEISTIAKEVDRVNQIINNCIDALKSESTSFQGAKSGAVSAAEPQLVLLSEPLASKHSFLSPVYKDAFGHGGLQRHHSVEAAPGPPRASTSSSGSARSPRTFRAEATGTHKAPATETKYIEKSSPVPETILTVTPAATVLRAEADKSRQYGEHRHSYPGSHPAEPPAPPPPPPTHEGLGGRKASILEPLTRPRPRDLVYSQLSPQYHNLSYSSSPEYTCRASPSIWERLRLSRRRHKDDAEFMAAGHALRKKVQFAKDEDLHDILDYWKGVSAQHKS
From the text: as §1, §2
HEK293A polyclonal cells stably expressing either Elfn1 or empty vector were passaged in media (Dulbecco’s modified Eagle medium (DMEM), supplemented with 10% fetal bovine serum (FBS), 20 mM N-(2-hydroxyethyl)-piperazine-N′-ethanesulfonic acid (HEPES), 1 mM Na pyruvate, 2 mM Glutamax, 0.1 mM nonessential amino acids, 1× antibiotic/antimycotic) under G418 (700 μg/mL) selection to maintain expression.
as §3
as §4, with “NJ). Data were acquired at 1 Hz (excitation 470 ± 20 nm, emission 540 ± 30 nm) for 10 s, followed by the addition of 20 μL/well of 10 μM NAM/PAM/DMSO, followed by an additional 4 min of data collection.” for “NJ).”, “Prism.” for “Prism. Basal activity was calculated with data points at the three lowest test concentrations. Maximum activity was calculated with data points at two highest concentrations. All experiments were replicated at least three times in duplicate or triplicate.”

[1] = 10 μM NAM, three lowest L-AP4 concentrations, normalized to mGlu7/pcDNA3 vehicle L-AP4 max
[2] = 10 μM PAM, L-AP4 CRC, normalized to percent L-AP4 response with pcDNA and DMSO
[3] = PAM concentration-response at an EC20 concentration of L-AP4

baseline response ± SEM, pcDNA (rat mGlu7; [1]): –6.6 ± 1.8
baseline response ± SEM, Elfn1 (mGlu7/Elfn1; [1]): 0.2 ± 3.5
SMILES: COc1ccc(-c2cnc(-c3cc(OC(F)(F)F)ccc3-n3cncn3)o2)cc1OC [VU6018226]

baseline response ± SEM, pcDNA (rat mGlu7; [1]): –12.5 ± 2.2
baseline response ± SEM, Elfn1 (mGlu7/Elfn1; [1]): –8.1 ± 1.1
SMILES: CCCOc1ccc(C(=O)Nc2cc(OC(F)(F)F)ccc2-n2cncn2)cc1OC [VU6010953]

baseline response ± SEM, pcDNA (rat mGlu7; [1]): –14.5 ± 2.6
baseline response ± SEM, Elfn1 (mGlu7/Elfn1; [1]): –9.0 ± 0.9
SMILES: COc1ccc(C(=O)Nc2cc(OC(F)(F)F)ccc2-n2cncn2)cc1OC [VU6010608]

baseline response ± SEM, pcDNA (rat mGlu7; [1]): –11.5 ± 4.7
baseline response ± SEM, Elfn1 (mGlu7/Elfn1; [1]): –5.7 ± 5.9
SMILES: COc1ccc(-c2noc(-c3cc(Cl)ccc3-n3cncn3)n2)cc1OC [VU6017743]

baseline response ± SEM, pcDNA (rat mGlu7; [1]): –5.3 ± 3.7
baseline response ± SEM, Elfn1 (mGlu7/Elfn1; [1]): –0.7 ± 4.5
SMILES: COc1ccc(-c2nnc(-c3cc(OC(F)(F)F)ccc3-c3cn[nH]c3)o2)cc1OC [VU6019282]

SMILES: COc1cc(F)cc2c(N3CCN(c4ccccc4F)CC3)c(C#N)cnc12 [VU6027459]
baseline response ± SEM, pcDNA (rat mGlu7; [2]): 25.6±12.0%
Emax (rat mGlu7): 75.8 ± 5.2%
EC50 (rat mGlu7; PAM pEC50, pcDNA): 1000 nM
Fold potentiation, pcDNA (rat mGlu7): 3.0±0.4 fold
baseline response ± SEM, Elfn1 (mGlu7/Elfn1; [2]): 12.5±8.4%
Emax (mGlu7/Elfn1; [3]): 44.1 ± 4.5%
EC50 (mGlu7/Elfn1; PAM pEC50, Elfn1, PAM concentration-response at an EC20 concentration of L-AP4): 1620 nM
Fold potentiation, Elfn1 (mGlu7/Elfn1): 2.0±0.2 fold

baseline Resp ± SEM, pcDNA (rat mGlu7): –11.4 ± 4.8 %
Maximal Resp ± SEM, pcDNA (rat mGlu7): 1.7 ± 3.6 %
response below baseline at inactive L-AP4 concentrations (rat mGlu7): inverse agonist activity
% inhibition Resp ± SEM, pcDNA (rat mGlu7): 1.6 ± 3.5%
IC50 (rat mGlu7): 1660 nM
compound Min Resp ± SEM, pcDNA (rat mGlu7): 6.9 ± 6.5
baseline Resp ± SEM, Elfn1 (mGlu7/Elfn1): –6.5 ± 1.3 %
Maximal Resp ± SEM, Elfn1 (mGlu7/Elfn1): –13.2 ± 1.7 %
% inhibition Resp ± SEM, Elfn1 (mGlu7/Elfn1): –30.4 ± 2.9 %
IC50 (mGlu7/Elfn1): 380 nM
compound Min Resp ± SEM, Elfn1 (mGlu7/Elfn1): 2.5 ± 8.4
SMILES: O=c1c(Oc2ccc(I)cc2)coc2cc(O)ccc12 [XAP044, reference compound]

baseline response ± SEM, pcDNA (rat mGlu7; [2]): 6.4±2.3%
Emax (rat mGlu7): 138 ± 5.2%
EC50 (rat mGlu7; read-out: PAM pEC50, pcDNA (converted)): 3550 nM
Fold potentiation, pcDNA (rat mGlu7): 4.4±0.3 fold
baseline response ± SEM, Elfn1 (mGlu7/Elfn1; [2]): 1.0±1.7%
Emax (mGlu7/Elfn1; [3]): 66.3 ± 3.6%
EC50 (mGlu7/Elfn1; PAM concentration-response at an EC20 concentration of L-AP4, read-out: PAM pEC50, Elfn1 (converted)): 2820 nM
Fold potentiation, Elfn1 (mGlu7/Elfn1): 2.7±0.2 fold
SMILES: COC(=O)c1ccc(-n2c(C)cc(C(=O)CSc3ccc(NC(C)=O)cc3)c2C)cc1 [VU0155094]

baseline Resp ± SEM, pcDNA (rat mGlu7): –21.5 ± 2.0 %
Maximal Resp ± SEM, pcDNA (rat mGlu7): –0.08 ± 1.4 %
response below baseline at inactive L-AP4 concentrations (rat mGlu7): inverse agonist activity
% inhibition Resp ± SEM, pcDNA (rat mGlu7): –0.11 ± 1.4%
IC50 (rat mGlu7): 195 nM
compound Min Resp ± SEM, pcDNA (rat mGlu7): –32.9 ± 8.0
baseline Resp ± SEM, Elfn1 (mGlu7/Elfn1): –12.7 ± 2.9 %
Maximal Resp ± SEM, Elfn1 (mGlu7/Elfn1): –10.1 ± 1.7 %
% inhibition Resp ± SEM, Elfn1 (mGlu7/Elfn1): –22.4 ± 3.4 %
IC50 (mGlu7/Elfn1): 141 nM
compound Min Resp ± SEM, Elfn1 (mGlu7/Elfn1): –28.5 ± 5.5
SMILES: CCc1nc2c(o1)CC(c1ccc(C)cc1C)CC2=O (centres unmarked) [ADX71743, reference compound]

baseline response ± SEM, pcDNA (rat mGlu7; [1]): –19.1 ± 2.4
baseline response ± SEM, Elfn1 (mGlu7/Elfn1; [1]): –8.1 ± 2.0
SMILES: COc1cc(C(=O)Nc2cc(OC(F)(F)F)ccc2-n2cncn2)ccc1OCC1CC1 [VU6012962, N-(2-(1 H-1,2,4-triazol-1-yl)-5-(trifluoromethoxy)phenyl)-4-(cyclopropylmethoxy)-3-methox ybenzamide]
